Test results taken from ChEMBL document CHEMBL4385653, “Design, synthesis, biological evaluation of benzoyl amide derivatives containing nitrogen heterocyclic ring as potential VEGFR-2 inhibitors” (Bioorg Med Chem, 2019).

Key:
[1] = test system: MCF7; assay: Inhibition of cell migration of human MCF7 cells at 4 uM by wound healing assay; assay type: functional, cell-based; conditions: TDE = time-dependent effect
[2] = test system: MCF7; assay: Inhibition of cell migration of human MCF7 cells assessed as relative distance between the edges of the wound at 4 uM incubated for 12 hrs by wound healing assay (reference value: 87.55%); assay type: functional; parameters: scale not given: the % may be the effect or the level left
[3] = test system: MCF7; assay: Suppression of mitochondrial membrane potential in human MCF7 cells assessed as decrease in red fluorescent cells incubated for 12 hrs by rhodamine-123 dye based flow cytometry analysis; assay type: functional, cell-based
[4] = test system: MCF7; assay: Suppression of mitochondrial membrane potential in human MCF7 cells assessed as increase in green fluorescent cells incubated for 12 hrs by rhodamine-123 dye based flow cytometry analysis; assay type: functional, cell-based
[5] = molecular target: Vascular endothelial growth factor receptor 2 (Homo sapiens, UniProt P35968); assay: Inhibition of VEGFR2 (unknown origin) incubated for 30 mins by enzyme immunoassay
[6] = molecular target: Epidermal growth factor receptor (Homo sapiens, UniProt P00533); assay: Inhibition of EGFR (unknown origin) incubated for 30 mins by enzyme immunoassay
[7] = molecular target: Fibroblast growth factor receptor 1 (Homo sapiens, UniProt P11362); assay: Inhibition of bFGFR (unknown origin) incubated for 30 mins by enzyme immunoassay
[8] = Inhibition of PDGFR (unknown origin) incubated for 30 mins by enzyme immunoassay; parameters: species or system Homo sapiens
[9] = test system: HepG2; assay: Antiproliferative activity against human HepG2 cells assessed as inhibition of cell proliferation incubated for 48 hrs by MTT assay; assay type: functional, cell-based; conditions: HepG2, 48 h
[10] = test system: MCF7; assay: Antiproliferative activity against human MCF7 cells assessed as inhibition of cell proliferation incubated for 48 hrs by MTT assay; assay type: functional, cell-based; conditions: MCF7, 48 h
[11] = test system: A549; assay: Antiproliferative activity against human A549 cells assessed as inhibition of cell proliferation incubated for 48 hrs by MTT assay; assay type: functional, cell-based; conditions: A549, 48 h
[12] = Cytotoxicity in HEK293T cells assessed as reduction in cell viability incubated for 48 hrs by MTT assay; assay type: cell-based, HEK-293T; conditions: human
[13] = test system: MCF7; assay: Induction of apoptosis in human MCF7 cells assessed as early apoptotic cells level at 2 uM incubated for 24 hrs by Annexin V-FITC/PI double staining based flow cytometry analysis (reference value: 6.37%); assay type: functional
[14] = test system: MCF7; assay: Induction of apoptosis in human MCF7 cells assessed as late necrotic cells level at 2 uM incubated for 24 hrs by Annexin V-FITC/PI double staining based flow cytometry analysis (reference value: 1.49%); assay type: functional
[15] = test system: MCF7; assay: Induction of apoptosis in human MCF7 cells assessed as viable cells level at 4 uM incubated for 24 hrs by Annexin V-FITC/PI double staining based flow cytometry analysis (reference value: 82%); assay type: functional
[16] = test system: MCF7; assay: Induction of apoptosis in human MCF7 cells assessed as early apoptotic cells level at 4 uM incubated for 24 hrs by Annexin V-FITC/PI double staining based flow cytometry analysis (reference value: 6.37%); assay type: functional
[17] = test system: MCF7; assay: Induction of apoptosis in human MCF7 cells assessed as late apoptotic cells level at 4 uM incubated for 24 hrs by Annexin V-FITC/PI double staining based flow cytometry analysis (reference value: 10.1%); assay type: functional
[18] = test system: MCF7; assay: Induction of apoptosis in human MCF7 cells assessed as viable cells level at 8 uM incubated for 24 hrs by Annexin V-FITC/PI double staining based flow cytometry analysis (reference value: 82%); assay type: functional
[19] = test system: MCF7; assay: Induction of apoptosis in human MCF7 cells assessed as early apoptotic cells level at 8 uM incubated for 24 hrs by Annexin V-FITC/PI double staining based flow cytometry analysis (reference value: 6.37%); assay type: functional
[20] = test system: MCF7; assay: Induction of apoptosis in human MCF7 cells assessed as late apoptotic cells level at 8 uM incubated for 24 hrs by Annexin V-FITC/PI double staining based flow cytometry analysis (reference value: 10.1%); assay type: functional
[21] = test system: MCF7; assay: Induction of apoptosis in human MCF7 cells assessed as late necrotic cells level at 8 uM incubated for 24 hrs by Annexin V-FITC/PI double staining based flow cytometry analysis (reference value: 1.49%); assay type: functional
[22] = test system: MCF7; assay: Induction of apoptosis in human MCF7 cells assessed as viable cells level at 4 uM incubated for 12 hrs by Annexin V-FITC/PI double staining based flow cytometry analysis (reference value: 89%); assay type: functional
[23] = test system: MCF7; assay: Induction of apoptosis in human MCF7 cells assessed as early apoptotic cells level at 4 uM incubated for 12 hrs by Annexin V-FITC/PI double staining based flow cytometry analysis (reference value: 1.06%); assay type: functional
[24] = test system: MCF7; assay: Induction of apoptosis in human MCF7 cells assessed as late apoptotic cells level at 4 uM incubated for 12 hrs by Annexin V-FITC/PI double staining based flow cytometry analysis (reference value: 3.1%); assay type: functional
[25] = test system: MCF7; assay: Induction of apoptosis in human MCF7 cells assessed as viable cells level at 4 uM incubated for 24 hrs by Annexin V-FITC/PI double staining based flow cytometry analysis (reference value: 89%); assay type: functional
[26] = test system: MCF7; assay: Induction of apoptosis in human MCF7 cells assessed as late apoptotic cells level at 4 uM incubated for 24 hrs by Annexin V-FITC/PI double staining based flow cytometry analysis (reference value: 3.1%); assay type: functional
[27] = test system: MCF7; assay: Induction of apoptosis in human MCF7 cells assessed as late necrotic cells level at 4 uM incubated for 24 hrs by Annexin V-FITC/PI double staining based flow cytometry analysis (reference value: 6.88%); assay type: functional
[28] = test system: MCF7; assay: Induction of apoptosis in human MCF7 cells assessed as early apoptotic cells level at 4 uM incubated for 36 hrs by Annexin V-FITC/PI double staining based flow cytometry analysis (reference value: 1.06%); assay type: functional
[29] = test system: MCF7; assay: Induction of apoptosis in human MCF7 cells assessed as late apoptotic cells level at 4 uM incubated for 36 hrs by Annexin V-FITC/PI double staining based flow cytometry analysis (reference value: 3.1%); assay type: functional
[30] = test system: MCF7; assay: Induction of apoptosis in human MCF7 cells assessed as late necrotic cells level at 4 uM incubated for 36 hrs by Annexin V-FITC/PI double staining based flow cytometry analysis (reference value: 6.88%); assay type: functional
[31] = test system: MCF7; assay: Suppression of mitochondrial membrane potential in human MCF7 cells assessed as red fluorescent cells level at 2 uM incubated for 12 hrs by rhodamine-123 dye based flow cytometry analysis (reference value: 99.71%); assay type: functional
[32] = test system: MCF7; assay: Suppression of mitochondrial membrane potential in human MCF7 cells assessed as green fluorescent cells level at 2 uM incubated for 12 hrs by rhodamine-123 dye based flow cytometry analysis (reference value: 0.29%); assay type: functional
[33] = test system: MCF7; assay: Suppression of mitochondrial membrane potential in human MCF7 cells assessed as red fluorescent cells level at 4 uM incubated for 12 hrs by rhodamine-123 dye based flow cytometry analysis (reference value: 99.71%); assay type: functional
[34] = test system: MCF7; assay: Suppression of mitochondrial membrane potential in human MCF7 cells assessed as green fluorescent cells level at 4 uM incubated for 12 hrs by rhodamine-123 dye based flow cytometry analysis (reference value: 0.29%); assay type: functional
[35] = test system: MCF7; assay: Suppression of mitochondrial membrane potential in human MCF7 cells assessed as red fluorescent cells level at 8 uM incubated for 12 hrs by rhodamine-123 dye based flow cytometry analysis (reference value: 99.71%); assay type: functional
[36] = test system: MCF7; assay: Suppression of mitochondrial membrane potential in human MCF7 cells assessed as green fluorescent cells level at 8 uM incubated for 12 hrs by rhodamine-123 dye based flow cytometry analysis (reference value: 0.29%); assay type: functional

Sequence of Epidermal growth factor receptor (P00533 whole entry): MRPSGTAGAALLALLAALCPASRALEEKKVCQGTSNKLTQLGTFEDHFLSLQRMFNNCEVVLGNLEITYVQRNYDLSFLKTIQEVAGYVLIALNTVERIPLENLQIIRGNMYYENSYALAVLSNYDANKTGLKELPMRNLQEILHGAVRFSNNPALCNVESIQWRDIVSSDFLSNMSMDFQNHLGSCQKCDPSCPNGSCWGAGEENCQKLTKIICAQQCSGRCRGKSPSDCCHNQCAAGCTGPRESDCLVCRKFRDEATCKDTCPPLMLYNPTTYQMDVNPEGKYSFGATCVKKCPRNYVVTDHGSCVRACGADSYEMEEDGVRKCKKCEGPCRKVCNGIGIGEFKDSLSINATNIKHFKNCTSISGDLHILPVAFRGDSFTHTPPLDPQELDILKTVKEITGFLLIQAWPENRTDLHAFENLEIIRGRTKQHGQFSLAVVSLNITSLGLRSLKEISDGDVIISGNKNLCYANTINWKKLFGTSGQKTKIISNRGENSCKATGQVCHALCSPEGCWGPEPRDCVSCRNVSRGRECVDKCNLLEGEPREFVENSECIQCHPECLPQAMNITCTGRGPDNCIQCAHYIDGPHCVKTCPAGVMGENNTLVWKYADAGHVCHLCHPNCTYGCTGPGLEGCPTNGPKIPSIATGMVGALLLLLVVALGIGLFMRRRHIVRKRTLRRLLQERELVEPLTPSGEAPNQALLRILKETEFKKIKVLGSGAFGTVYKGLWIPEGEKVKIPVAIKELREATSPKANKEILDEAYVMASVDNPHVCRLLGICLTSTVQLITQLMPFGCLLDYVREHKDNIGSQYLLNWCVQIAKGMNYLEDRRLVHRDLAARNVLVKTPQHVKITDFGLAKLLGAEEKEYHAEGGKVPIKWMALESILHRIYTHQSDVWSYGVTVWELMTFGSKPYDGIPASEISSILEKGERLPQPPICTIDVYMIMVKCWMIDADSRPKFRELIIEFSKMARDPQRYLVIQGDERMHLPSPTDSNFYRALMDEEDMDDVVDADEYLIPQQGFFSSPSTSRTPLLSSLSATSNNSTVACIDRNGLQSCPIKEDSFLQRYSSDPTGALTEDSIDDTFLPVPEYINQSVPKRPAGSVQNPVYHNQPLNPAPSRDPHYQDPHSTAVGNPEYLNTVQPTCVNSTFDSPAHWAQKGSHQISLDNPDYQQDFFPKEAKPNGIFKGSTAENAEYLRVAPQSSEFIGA
Sequence of Fibroblast growth factor receptor 1 (P11362 whole entry): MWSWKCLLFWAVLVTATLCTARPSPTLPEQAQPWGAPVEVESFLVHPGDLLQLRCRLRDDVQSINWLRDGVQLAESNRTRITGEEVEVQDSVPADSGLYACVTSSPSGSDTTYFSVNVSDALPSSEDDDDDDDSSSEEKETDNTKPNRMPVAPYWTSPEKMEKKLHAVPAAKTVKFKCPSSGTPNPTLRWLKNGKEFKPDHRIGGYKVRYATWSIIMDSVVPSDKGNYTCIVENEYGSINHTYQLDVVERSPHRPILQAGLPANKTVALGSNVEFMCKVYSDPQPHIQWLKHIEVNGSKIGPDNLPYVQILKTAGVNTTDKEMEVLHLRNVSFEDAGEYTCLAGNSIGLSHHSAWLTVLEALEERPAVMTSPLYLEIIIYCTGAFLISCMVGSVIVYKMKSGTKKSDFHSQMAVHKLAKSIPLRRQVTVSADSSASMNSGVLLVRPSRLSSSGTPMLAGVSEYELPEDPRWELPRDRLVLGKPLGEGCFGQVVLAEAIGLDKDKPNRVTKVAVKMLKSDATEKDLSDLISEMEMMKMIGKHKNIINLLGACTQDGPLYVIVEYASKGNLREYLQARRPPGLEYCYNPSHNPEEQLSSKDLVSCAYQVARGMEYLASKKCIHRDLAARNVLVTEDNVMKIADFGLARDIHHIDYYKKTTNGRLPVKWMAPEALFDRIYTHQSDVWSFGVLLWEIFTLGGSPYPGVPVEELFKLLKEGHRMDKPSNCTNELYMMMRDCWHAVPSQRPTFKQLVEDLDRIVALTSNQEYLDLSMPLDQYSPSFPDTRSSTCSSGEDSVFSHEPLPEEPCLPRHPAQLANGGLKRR
Sequence of Vascular endothelial growth factor receptor 2 (P35968 whole entry): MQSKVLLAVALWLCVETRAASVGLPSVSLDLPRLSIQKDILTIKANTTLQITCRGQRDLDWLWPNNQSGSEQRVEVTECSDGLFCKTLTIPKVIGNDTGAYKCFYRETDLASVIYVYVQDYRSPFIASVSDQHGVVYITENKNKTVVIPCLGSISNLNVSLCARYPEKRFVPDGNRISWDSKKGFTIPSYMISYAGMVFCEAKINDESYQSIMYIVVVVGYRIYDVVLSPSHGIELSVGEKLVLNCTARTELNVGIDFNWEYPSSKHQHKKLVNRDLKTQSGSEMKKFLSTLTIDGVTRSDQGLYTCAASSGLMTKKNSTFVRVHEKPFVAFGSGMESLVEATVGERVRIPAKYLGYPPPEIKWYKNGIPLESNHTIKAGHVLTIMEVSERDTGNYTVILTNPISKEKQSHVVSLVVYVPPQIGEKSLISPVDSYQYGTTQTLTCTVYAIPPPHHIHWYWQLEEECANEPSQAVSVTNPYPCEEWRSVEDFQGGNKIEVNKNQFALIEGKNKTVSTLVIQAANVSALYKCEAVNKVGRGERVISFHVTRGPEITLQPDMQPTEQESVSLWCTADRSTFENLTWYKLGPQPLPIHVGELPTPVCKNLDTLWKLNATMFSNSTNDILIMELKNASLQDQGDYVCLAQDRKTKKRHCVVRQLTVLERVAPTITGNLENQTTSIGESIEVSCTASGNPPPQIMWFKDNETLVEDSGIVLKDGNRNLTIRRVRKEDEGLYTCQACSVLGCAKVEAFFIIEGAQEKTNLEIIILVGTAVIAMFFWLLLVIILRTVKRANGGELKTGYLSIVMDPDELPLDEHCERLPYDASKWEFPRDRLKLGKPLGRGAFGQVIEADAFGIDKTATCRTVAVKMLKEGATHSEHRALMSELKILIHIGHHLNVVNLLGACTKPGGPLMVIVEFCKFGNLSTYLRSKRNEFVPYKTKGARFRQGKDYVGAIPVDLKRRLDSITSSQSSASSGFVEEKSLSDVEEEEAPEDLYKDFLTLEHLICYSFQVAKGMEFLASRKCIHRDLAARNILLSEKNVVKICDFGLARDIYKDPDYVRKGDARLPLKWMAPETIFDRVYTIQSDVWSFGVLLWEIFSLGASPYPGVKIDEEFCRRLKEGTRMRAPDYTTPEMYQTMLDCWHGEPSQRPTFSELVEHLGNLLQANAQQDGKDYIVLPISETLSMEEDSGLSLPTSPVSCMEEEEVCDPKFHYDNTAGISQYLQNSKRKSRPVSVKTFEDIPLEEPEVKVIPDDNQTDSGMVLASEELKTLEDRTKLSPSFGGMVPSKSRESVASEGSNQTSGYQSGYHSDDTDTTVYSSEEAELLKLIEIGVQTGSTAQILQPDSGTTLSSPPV

IC50 [5]: 0.34 µM
IC50 [6]: 8.77 µM
IC50 [7]: 17.2 µM
IC50 [8]: 14.1 µM
IC50 [9]: 2.44 µM
IC50 [10]: 1.08 µM
IC50 [11]: 15.6 µM
Structure (SMILES): Cc1ccc(-n2cc(NC(=O)c3cccc(NS(=O)(=O)c4ccc(Cl)cc4)c3)cn2)cc1
inhibition [1]: Tde
Activity [2]: 90.9%
Activity [3]: Dose-dependent effect
Activity [4]: Dose-dependent effect
CC50 at 48 h [12]: 110 µM
Activity [13]: 9.7%
Activity [14]: 2.32%
Activity [15]: 64%
Activity [16]: 11.9%
Activity [17]: 21.4%
Activity [18]: 41.4%
Activity [19]: 9.62%
Activity [20]: 45.2%
Activity [21]: 3.76%
Activity [22]: 65.6%
Activity [23]: 22.7%
Activity [24]: 11.3%
Activity [25]: 58.5%
Activity [26]: 18.7%
Activity [27]: 1.14%
Activity [28]: 30.4%
Activity [29]: 20.9%
Activity [30]: 1.03%
Activity [31]: 87.6%
Activity [32]: 12.4%
Activity [33]: 80.6%
Activity [34]: 19.4%
Activity [35]: 62.85%
Activity [36]: 37.15%
